Measured values as given in patent US6906098B2, “Mixed steroidal 1,2,4,5-tetraoxane compounds and methods of making and using thereof” (priority 2002, dated 2005).
Converted amounts (≈) assume the structure as drawn. “And” between values parts separate entries of the source, which are not always exact repeats. Equal values may be shown once. Read-outs that look alike come from different tables or passages of the source.

What was measured:
[1] = in vitro; conditions: African green monkey, Cytotoxcity (IC50)
[2] = tested on: M. tuberculosis H37Rv; assay: Minimum inhibitory concentration (MIC) in the MABA; format: cell-based, Mycobacterium tuberculosis; conditions: Mycobacterium tuberculosis, H37RV, read-out: MIC
Summary of the method: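 Run under the NIAID TAACF screening program against M. tuberculosis by fluorescence read-out. MIC taken as the lowest concentration giving 90% reduction in fluorescence relative to controls.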

[3] = tested on: Plasmodium falciparum chloroquine-resistant strain W2; assay: microbe, parasite or virus in culture; format: cell-based; conditions: growth inhibition, chloroquine-resistant strain W2, 66 h incubation
[4] = tested on: Mycobacterium tuberculosis H37Rv (ATCC 27294); assay: Primary screen, Microplate Alamar Blue Assay (MABA), percent inhibition; format: cell-based; conditions: Mycobacterium tuberculosis, primary screening at 6.25 μg/ml
Summary of the method: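 Single-concentration screen at 6.25 μg/ml (or molar equivalent of the heaviest congener in a series) against H37Rv grown in BACTEC 12B medium. Growth read by Microplate Alamar Blue Assay, reported as percent inhibition.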

[5] = tested on: VERO cells; assay: cells; conditions: Chlorocebus sabaeus, Table 5
[6] = tested on: VERO cells
[7] = tested on: D6 and W2 P. falciparum clones; format: cell-based, Plasmodium falciparum; conditions: for Resistance Index: IC50 (W2)/IC50 (D6) ratio
[8] = tested on: Plasmodium falciparum chloroquine-susceptible strain D6; assay: In vitro antimalarial drug susceptibility assay (radiolabeled hypoxanthine incorporation), strain D6; format: cell-based; conditions: growth inhibition, chloroquine-susceptible strain D6, 66 h incubation
[9] = Table 3, VERO cell line, 72 hours exposure
[10] = Table 5, Alamar assay, M. tuberculosis H37Rv
[11] = Table 3, H37Rv, read-out: Inhibition (%)
[12] = Table 5, Alamar assay, read-out: % Inhib
[13] = ratio of IC50 in VERO cells to MIC (M. tuberculosis H37Rv)

SMILES | IC50 [1, 9] | MIC ([2]; Table 3, H37Rv) | MIC [2, 10] | Strain W2 IC50 ([3]; listed as 17) | inhibition at 6.25 µg/mL [4, 11] | inhibition at 6.25 µg/mL [4, 12] | IC50 [5] | SI (IC50 (Vero)/IC50 (D6 or W2)) ([6]; cytotoxicity in Vero cells versus antimalarial activity) | SI (selectivity index) [6, 13] | Resistance Index [7] | Resistance Index ([7]; listed as 17) | times more active than parent methyl ester 8g ([7]; antimalarial activity) | times as active as arteether ([7]; antimalarial activity in vitro) | times more active than artelinic acid ([7]; antimalarial activity in vitro) | Strain D6 IC50 ([8]; listed as 17) | Strain W2 IC50 [3] | Strain D6 IC50 [8] | IC50 [1] | SI (selectivity index) [6]
CC(=O)O[C@H]1CC2C(C3CC[C@H](C(C)CCC(N)=O)[C@]31C)[C@H](OC(C)=O)C[C@@H]1CC3(CC[C@]21C)OOC1(CCC(C)CC1)OO3 (stereo partly drawn) [17/1C26, 7α,12α-Diacetoxy-5β-cholan-24-amide-3-spiro-6′-(1′,2′,4′,5′-tetraoxacyclohexane)-3′-spiro-1″-((4″R)-methyl)cyclohexane] | 3.49 µg/mL and 5.51 µM | 3.13 µg/mL and 4.94 µM | 3.13 µg/mL (≈ 4.94 µM) | 0.00037 µg/mL | 99% | 99% | 3.49 µg/mL (≈ 5.51 µM) | 9 500 | 1.1 | 0.50 | 0.50 | ca. 9 times | 2.4 times | ca. 6 times | 0.00074 µg/mL | – | – | – | –
CNC(=O)CCC(C)[C@H]1CCC2C3C(C[C@H](OC(C)=O)[C@@]21C)[C@@]1(C)CCC2(C[C@H]1C[C@H]3OC(C)=O)OOC1(CCC(C)CC1)OO2 (stereo partly drawn) [18/1C27, N-Methyl-7α,12α-diacetoxy-5β-cholan-24-amide-3-spiro-6′-(1′,2′,4′,5′-tetraoxacyclohexane)-3′-spiro-1″-((4″R)-methyl)cyclohexane] | 5.69 µg/mL and 8.78 µM | 6.25 µg/mL and 9.65 µM | 6.25 µg/mL (≈ 9.65 µM) | – | 98% | 98% | – | – | 0.91 | 0.61 | – | – | – | – | – | 0.00234 µg/mL | 0.00386 µg/mL | – | –
CCNC(=O)CCC(C)[C@H]1CCC2C3C(C[C@H](OC(C)=O)[C@@]21C)[C@@]1(C)CCC2(C[C@H]1C[C@H]3OC(C)=O)OOC1(CCC(C)CC1)OO2 (stereo partly drawn) [19/1C28, N-Ethyl-7α,12α-diacetoxy-5β-cholan-24-amide-3-spiro-6′-(1′,2′,4′,5′-tetraoxacyclohexane)-3″-spiro-1″-((4″R)-methyl)cyclohexane] | 5.37 µg/mL and 8.11 µM | 3.13 µg/mL and 4.73 µM | 3.13 µg/mL (≈ 4.73 µM) | – | 98% | – | 5.37 µg/mL (≈ 8.11 µM) | – | 1.7 | 0.68 | – | – | – | – | – | 0.0026 µg/mL | 0.00384 µg/mL | – | –
CCCNC(=O)CCC(C)[C@H]1CCC2C3C(C[C@H](OC(C)=O)[C@@]21C)[C@@]1(C)CCC2(C[C@H]1C[C@H]3OC(C)=O)OOC1(CCC(C)CC1)OO2 (stereo partly drawn) [20/1C29, N-(n-Propyl)-7α,12α-diacetoxy-5β-cholan-24-amide-3-spiro-6′-(1′,2′,4′,5′-tetraoxacyclohexane)-3′-spiro-1″-((4″R)-methyl)cyclohexane] | 8.34 µg/mL and 12.3 µM | 6.25 µg/mL and 9.25 µM | 6.25 µg/mL (≈ 9.25 µM) | – | 94% | – | 8.34 µg/mL (≈ 12.3 µM) | – | 1.3 | 1.18 | – | – | – | – | – | 0.00258 µg/mL | 0.00218 µg/mL | – | –
CO[C@H]1/C=C/O[C@@]2(C)Oc3c(C)c(O)c4c(O)c(c(/C=N/N5CCN(C)CC5)c(O)c4c3C2=O)NC(=O)/C(C)=C\C=C\[C@H](C)[C@H](O)[C@@H](C)[C@@H](O)[C@@H](C)[C@H](OC(C)=O)[C@@H]1C [Rifampin, reference compound] | – | 0.12 µg/mL and 0.15 µM | – | – | – | – | > 100 µg/mL | – | – | – | – | – | – | – | – | – | – | 111 µg/mL and 134 µM | > 800
